Source: paper PMC9090415, “Discovery of small molecule inhibitors of Plasmodium falciparum apicoplast DNA polymerase” (Journal of Enzyme Inhibition and Medicinal Chemistry, 2022)

Biological target: P. falciparum apicoplast DNA polymerase (Pf-apPOL) (Plasmodium falciparum, UniProt Q8ILY1)
Experiment: Fluorescence-based high-throughput DNA polymerase assay (molecular beacon), primary screen and dose-response
Format: biochemical
Conditions: for DNA Pol: 90 min, 10 µM; for % inhibition apPOL 180' 2.5 / % inhibition apPOL 180' 5 / % inhibition apPOL 180' 10 / % inhibition apPOL 180' 20 / % inhibition apPOL 180' 40 / % inhibition apPOL 180' 80: read at 180'
Method in brief: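 Single-point screening used 10 µM compound with 20 nM polymerase, 20 nM hairpin substrate and 6 µM dNTPs for 90 min at 25 °C. Confirmatory titrations (2.5–80 µM) followed fluorescence at three times, and IC50 was derived from a fit including a cooperativity term n.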

[1] = "DNA Pol" of the 186 hits list (screen value)

Chain of P. falciparum apicoplast DNA polymerase (Pf-apPOL) (Q8ILY1 entry or part of it): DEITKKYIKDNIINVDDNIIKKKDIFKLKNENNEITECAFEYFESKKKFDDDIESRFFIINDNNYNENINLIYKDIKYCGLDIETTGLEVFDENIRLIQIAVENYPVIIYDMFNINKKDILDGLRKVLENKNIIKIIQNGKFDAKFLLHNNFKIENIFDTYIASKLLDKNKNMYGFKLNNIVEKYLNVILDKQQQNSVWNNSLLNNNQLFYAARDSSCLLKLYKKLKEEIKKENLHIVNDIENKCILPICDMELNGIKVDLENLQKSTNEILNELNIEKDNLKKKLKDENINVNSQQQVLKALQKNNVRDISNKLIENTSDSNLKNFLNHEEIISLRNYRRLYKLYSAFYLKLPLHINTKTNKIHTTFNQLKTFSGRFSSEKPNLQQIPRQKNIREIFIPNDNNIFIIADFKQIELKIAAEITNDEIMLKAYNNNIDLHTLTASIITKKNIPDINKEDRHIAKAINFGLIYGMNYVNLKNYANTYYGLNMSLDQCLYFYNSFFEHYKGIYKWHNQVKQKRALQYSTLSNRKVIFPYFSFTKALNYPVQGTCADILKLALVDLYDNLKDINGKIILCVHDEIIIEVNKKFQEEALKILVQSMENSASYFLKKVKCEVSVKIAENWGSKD

## O=C(c1ccccc1)N1CCc2c(nc3cc(-c4ccccc4)[nH]n3c2=O)C1 [Molecule 30, O=C(N1CCc2c(C1)nc1n(c2=O)[nH]c(c1)c1ccccc1)c1ccccc1]
186 hits, DNA Pol (screen value), unit not given
  DNA Pol: 51
'DNA Pol' (screen value), unit not given
  DNA Pol: 51
DRC-1, read at 10', concentration 2.5
  % inhibition Apo pol 10' 2.5: 12.9086%
DRC-1, read at 10', concentration 5
  % inhibition Apo pol 10' 5: 15.849%
DRC-1, read at 10', concentration 10
  % inhibition Apo pol 10' 10: 54.0092%
DRC-1, read at 10', concentration 20
  % inhibition Apo pol 10' 20: 76.4447%
DRC-1, read at 10', concentration 40
  % inhibition Apo pol 10' 40: 86.2157%
DRC-1, read at 10', concentration 80
  % inhibition Apo pol 10' 80: 78.4105%
DRC-1, read at 90', concentration 2.5
  % inhibition Apol 90' 2.5: 4.897%
DRC-1, read at 90', concentration 5
  % inhibition Apol 90' 5: 3.579%
DRC-1, read at 90', concentration 10
  % inhibition Apol 90' 10: 37.2459%
DRC-1, read at 90', concentration 20
  % inhibition Apol 90' 20: 61.0288%
DRC-1, read at 90', concentration 40
  % inhibition Apol 90' 40: 75.6472%
DRC-1, read at 90', concentration 80
  % inhibition Apol 90' 80: 72.6232%
DRC-1, concentration 2.5
  % inhibition apPOL 180' 2.5: 0.553%
DRC-1, concentration 5
  % inhibition apPOL 180' 5: -2.049%
DRC-1, concentration 10
  % inhibition apPOL 180' 10: 22.4217%
DRC-1, concentration 20
  % inhibition apPOL 180' 20: 42.2339%
DRC-1, concentration 40
  % inhibition apPOL 180' 40: 59.6497%
DRC-1, concentration 80
  % inhibition apPOL 180' 80: 57.0627%
DRC-2, concentration 5
  % inhibition Apo pol 5': 18%
  % inhibition ApPOL 90': 18%
  % inhibition apPOL 180' 5: 10%
DRC-2, concentration 10
  % inhibition Apo pol 5': 37%
  % inhibition apPOL 180' 10: 29%
DRC-2, concentration 20
  % inhibition Apo pol 5': 50%
  % inhibition Apol 40': 61%
  % inhibition ApPOL 90': 60%
  % inhibition apPOL 180': 50%
  % inhibition apPOL 180' 20: 50%
DRC-2, concentration 80
  % inhibition Apo pol 5': 37%
  % inhibition ApPOL 90': 60%
  % inhibition apPOL 180' 80: 54%
DRC-2, concentration 40
  % inhibition ApPOL 90': 61%
  % inhibition apPOL 180' 40: 52%
DRC-2, read at 5', concentration 2.5
  % inhibition Apo pol 5' 2.5: 6.51%
DRC-2, read at 5', concentration 5
  % inhibition Apo pol 5' 5: 18%
DRC-2, read at 5', concentration 10
  % inhibition Apo pol 5' 10: 37%
DRC-2, read at 5', concentration 20
  % inhibition Apo pol 5' 20: 50%
DRC-2, read at 5', concentration 40
  % inhibition Apo pol 5' 40: 48%
DRC-2, read at 5', concentration 80
  % inhibition Apo pol 5' 80: 37%
DRC-2, read at 40', concentration 2.5
  % inhibition Apol 40' 2.5: 6.57%
DRC-2, read at 40', concentration 5
  % inhibition Apol 40' 5: 20%
DRC-2, read at 40', concentration 10
  % inhibition Apol 40' 10: 41%
DRC-2, read at 40', concentration 20
  % inhibition Apol 40' 20: 61%
DRC-2, read at 40', concentration 40
  % inhibition Apol 40' 40: 62%
DRC-2, read at 40', concentration 80
  % inhibition Apol 40' 80: 57%
DRC-2, read at 90', concentration 2.5
  % inhibition ApPOL 90' 2.5: 5%
DRC-2, read at 90', concentration 5
  % inhibition ApPOL 90' 5: 18%
DRC-2, read at 90', concentration 10
  % inhibition ApPOL 90' 10: 39%
DRC-2, read at 90', concentration 20
  % inhibition ApPOL 90' 20: 60%
DRC-2, read at 90', concentration 40
  % inhibition ApPOL 90' 40: 61%
DRC-2, read at 90', concentration 80
  % inhibition ApPOL 90' 80: 60%
DRC-2, concentration 2.5
  % inhibition apPOL 180' 2.5: 0.84%

## O=C(c1c[nH]c2ncccc12)N1CCCC1 [Molecule 63, O=C(c1c[nH]c2c1cccn2)N1CCCC1]
[1]
  DNA Pol: 28
DRC-1, concentration 2.5
  % inhibition Apo pol 10': 5.209%
  % inhibition Apol 90': 5.771%
  % inhibition apPOL 180': 3.366%
DRC-1, concentration 5
  % inhibition Apo pol 10': 6.34%
  % inhibition Apol 90': 3.06%
  % inhibition apPOL 180': -1.279%
DRC-1, concentration 10
  % inhibition Apo pol 10': 30.6254%
  % inhibition Apol 90': 21.9015%
  % inhibition apPOL 180': 12.4312%
DRC-1, concentration 20
  % inhibition Apo pol 10': 50.0486%
  % inhibition Apol 90': 39.4898%
  % inhibition apPOL 180': 25.4337%
DRC-1, concentration 40
  % inhibition Apo pol 10': 59.3862%
  % inhibition Apol 90': 47.3849%
  % inhibition apPOL 180': 33.3219%
DRC-1, concentration 80
  % inhibition Apo pol 10': 75.2483%
  % inhibition Apol 90': 77.404%
  % inhibition apPOL 180': 74.0045%
DRC-2, concentration 2.5
  % inhibition Apo pol 5': 3%
  % inhibition Apol 40': 3.74%
  % inhibition ApPOL 90': 2.81%
  % inhibition apPOL 180': -1%
DRC-2, concentration 5
  % inhibition Apo pol 5': 10%
  % inhibition Apol 40': 11%
  % inhibition ApPOL 90': 10%
  % inhibition apPOL 180': 3.46%
DRC-2, concentration 10
  % inhibition Apo pol 5': 29%
  % inhibition Apol 40': 33%
  % inhibition ApPOL 90': 30%
  % inhibition apPOL 180': 21%
DRC-2, concentration 20
  % inhibition Apo pol 5': 40%
  % inhibition Apol 40': 50%
  % inhibition ApPOL 90': 49%
  % inhibition apPOL 180': 41%
DRC-2, concentration 40
  % inhibition Apo pol 5': 42%
  % inhibition Apol 40': 62%
  % inhibition ApPOL 90': 66%
  % inhibition apPOL 180': 65%
DRC-2, concentration 80
  % inhibition Apo pol 5': 32%
  % inhibition Apol 40': 58%
  % inhibition ApPOL 90': 65%
  % inhibition apPOL 180': 68%
Primary screen value, DNA Pol
  DNA Pol: 28

## Cc1ccc(C(=O)/C=C/C=C/C=C/N(C)C)o1 [Molecule 96, CN(/C=C/C=C/C=C/C(=O)c1ccc(o1)C)C]
[1]
  DNA Pol: 48
DRC-1, concentration 2.5
  % inhibition Apo pol 10': 21.8998%
  % inhibition Apol 90': 11.0382%
  % inhibition apPOL 180': 1.481%
DRC-1, concentration 5
  % inhibition Apo pol 10': 52.2247%
  % inhibition Apol 90': 37.6511%
  % inhibition apPOL 180': 22.6897%
DRC-1, concentration 10
  % inhibition Apo pol 10': 71.8634%
  % inhibition Apol 90': 62.1527%
  % inhibition apPOL 180': 46.7432%
DRC-1, concentration 20
  % inhibition Apo pol 10': 65.9561%
  % inhibition Apol 90': 58.9151%
  % inhibition apPOL 180': 45.7545%
DRC-1, concentration 40
  % inhibition Apo pol 10': 68.0612%
  % inhibition Apol 90': 72.0375%
  % inhibition apPOL 180': 68.8362%
DRC-1, concentration 80
  % inhibition Apo pol 10': 57.2941%
  % inhibition Apol 90': 69.2174%
  % inhibition apPOL 180': 73.043%
DRC-2, concentration 2.5
  % inhibition Apo pol 5': 1.29%
  % inhibition Apol 40': 3.43%
  % inhibition ApPOL 90': 1%
  % inhibition apPOL 180': -4.64%
DRC-2, concentration 5
  % inhibition Apo pol 5': 13%
  % inhibition Apol 40': 26%
  % inhibition ApPOL 90': 23%
  % inhibition apPOL 180': 13%
DRC-2, concentration 10
  % inhibition Apo pol 5': 21%
  % inhibition Apol 40': 44%
  % inhibition ApPOL 90': 44%
  % inhibition apPOL 180': 36%
DRC-2, concentration 20
  % inhibition Apo pol 5': 2.29%
  % inhibition Apol 40': 42%
  % inhibition ApPOL 90': 47%
  % inhibition apPOL 180': 47%
DRC-2, concentration 40
  % inhibition Apo pol 5': -21%
  % inhibition Apol 40': 32%
  % inhibition ApPOL 90': 44%
  % inhibition apPOL 180': 51%
DRC-2, concentration 80
  % inhibition Apo pol 5': -45%
  % inhibition Apol 40': 20%
  % inhibition ApPOL 90': 38%
  % inhibition apPOL 180': 53%
Primary screen value, DNA Pol
  DNA Pol: 48

## CCOC(=O)C1=C2c3cc(OC)c(OC)cc3CC(C)(C)N2C(=O)C1=O [KU0193659]
[1]
  DNA Pol: 50
DRC-1, concentration 2.5
  % inhibition Apo pol 10': 0.5902%
  % inhibition Apol 90': 2.413%
  % inhibition apPOL 180': 2.939%
DRC-1, concentration 5
  % inhibition Apo pol 10': 6.068%
  % inhibition Apol 90': 7.311%
  % inhibition apPOL 180': 8.013%
DRC-1, concentration 10
  % inhibition Apo pol 10': 24.2091%
  % inhibition Apol 90': 23.2588%
  % inhibition apPOL 180': 23.6538%
DRC-1, concentration 20
  % inhibition Apo pol 10': 48.7622%
  % inhibition Apol 90': 44.3755%
  % inhibition apPOL 180': 40.1403%
DRC-1, concentration 40
  % inhibition Apo pol 10': 76.2717%
  % inhibition Apol 90': 72.221%
  % inhibition apPOL 180': 67.3971%
DRC-1, concentration 80
  % inhibition Apo pol 10': 83.8971%
  % inhibition Apol 90': 80.3053%
  % inhibition apPOL 180': 76.7403%
DRC-2, concentration 2.5
  % inhibition Apo pol 5': -4%
  % inhibition Apol 40': -2.41%
  % inhibition ApPOL 90': -1.64%
  % inhibition apPOL 180': -2%
DRC-2, concentration 5
  % inhibition Apo pol 5': -4.49%
  % inhibition Apol 40': -3%
  % inhibition ApPOL 90': -0.605%
  % inhibition apPOL 180': 1.35%
DRC-2, concentration 10
  % inhibition Apo pol 5': 16%
  % inhibition Apol 40': 21%
  % inhibition ApPOL 90': 22%
  % inhibition apPOL 180': 23%
DRC-2, concentration 20
  % inhibition Apo pol 5': 26%
  % inhibition Apol 40': 39%
  % inhibition ApPOL 90': 43%
  % inhibition apPOL 180': 46%
DRC-2, concentration 40
  % inhibition Apo pol 5': 41%
  % inhibition Apol 40': 57%
  % inhibition ApPOL 90': 64%
  % inhibition apPOL 180': 68%
DRC-2, concentration 80
  % inhibition Apo pol 5': 41%
  % inhibition Apol 40': 57%
  % inhibition ApPOL 90': 62%
  % inhibition apPOL 180': 66%
Primary screen value, DNA Pol
  DNA Pol: 50
